Measured values published in US20250376472A1, “3-(PHENYLSULFONYL)-[1,2,3]TRIAZOLO[1,5A]QUINAZOLIN-5(4H)-ONE DERIVATIVES” (priority 2022, published 2025).

Target: T1, AgrA (Staphylococcus aureus, UniProt P0A0I7)
T1 construct: endogenous in cells; host or cells: S. aureus USA300 strain UAMS-1625 carrying a P3-lacZ reporter plasmid
Assay: cell-based
Design: species or system S. aureus
Details: for Ratio IC50 (in presence of HSA)/IC50 (in absence of HSA): 40 mg/mL HSA versus no HSA
Method: The inventive compounds are 3-(phenylsulfonyl)-[1,2,3]triazolo[1,5a]quinazolin-5(4h)-one derivatives comprising an N-bound piperazine or homopiperazine at the 8-position of the [1,2,3]triazolo[1,5a]quinazolin-5(4h)-one core, further substituted (on the second nitrogen atom) by an (optionally substituted) acetyl or propionyl amide group. […] Specifically, the reporter gene lacZ (which encodes the protein product β-galactosidase) was transfected into S. aureus with a plasmid under control of the P3 promoter. The compounds were serially diluted in lysogeny broth (LB), and incubated with S. aureus. Following incubation, the S. aureus cells were lysed and treated with 4-methylumbelliferyl-galactopyranoside (MUG). The β-galactosidase produced by expression of lacZ cleaved the MUG into galactopyranose and 4-methylumbelliferone, which was measured by fluorescence.
The resulting reporter strain was used to measure AgrA inhibitory activity as follows. From an overnight culture plate, cells were resuspended in 0.9% (w/v) saline solution and bacterial inoculum was prepared in LB medium with 5×10^5 CFU/ml. Compounds were two-fold serially diluted in LB and 50 μL of this 10× concentrated samples were added into the 96-deep well plate. 500 μL of bacterial suspension was finally added to the compounds or DMSO control. Plates were covered and incubated with shaking at 37° C. After 18 hours incubation, 100 μL was transferred to a new clear 96-well plate and the OD600 was measured using a TECAN Infinite F200 microplate reader to control for growth inhibition. Another 100 μL was transferred to a new black 96-well plate containing 30 μL of lysis buffer (20 mM Tris/HCl, 3 mM MgCl2, 0.5% Tween 20 (v/v), 0.5% NP-40 (v/v)) and the plate was incubated with shaking at 37° C. for 60 min. 20 μL of the substrate MUG (4-Methylumbelliferyl O-D-galactopyranoside) at 0.25 mg/ml was added and the fluorescence (excitation: 360 nm, emission: 450 mu) was measured with a TECAN Infinite F200 microplate reader after 3 hours incubation at 37° C. with shaking. The IC50 was determined using GraphPad PRISM after normalization to DMSO control.

[1] = IC50 at 40 mg/mL HSA, LB medium supplemented with human serum albumin 40 mg/mL
[2] = IC50 without HSA, LB medium, no human serum albumin, 18 hours incubation
[3] = LB medium supplemented with human serum albumin 40 mg/mL
[4] = LB medium, no human serum albumin, 18 hours incubation

T1 sequence (P0A0I7 whole entry): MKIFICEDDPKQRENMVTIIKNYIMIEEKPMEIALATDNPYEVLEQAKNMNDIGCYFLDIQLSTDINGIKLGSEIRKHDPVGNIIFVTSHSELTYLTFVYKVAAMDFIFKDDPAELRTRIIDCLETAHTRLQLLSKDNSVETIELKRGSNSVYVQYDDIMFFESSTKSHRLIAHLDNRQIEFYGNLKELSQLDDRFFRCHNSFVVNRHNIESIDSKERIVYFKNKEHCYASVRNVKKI

| SMILES | IC50 [1] | IC50 [2] | other results |
| --- | --- | --- | --- |
| Cc1ccc(S(=O)(=O)c2nnn3c2[nH]c(=O)c2ccc(N4CCN(CC(=O)NCCO)CC4)cc23)c(C)c1 [Compound 19] | 18.5 to 92.7 µM | < 1.85 µM |  |
| Cc1ccc(S(=O)(=O)c2nnn3c2[nH]c(=O)c2ccc(N4CCN(CC(=O)NCCCCO)CC4)cc23)c(C)c1 [Compound 20] | 17.6 to 88.1 µM | < 1.76 µM |  |
| Cc1ccc(S(=O)(=O)c2nnn3c2[nH]c(=O)c2ccc(N4CCN(CC(=O)NCCOCCO)CC4)cc23)c(C)c1 [Compound 21] | 17.1 to 85.7 µM | < 1.71 µM |  |
| Cc1ccc(S(=O)(=O)c2nnn3c2[nH]c(=O)c2ccc(N4CCN(CC(=O)NCCOCCOCCO)CC4)cc23)c(C)c1 [Compound 22] | 15.9 to 79.7 µM | 1.59 to 7.97 µM |  |
| C#CCNC(=O)CN1CCN(c2ccc3c(=O)[nH]c4c(S(=O)(=O)c5ccc(C)cc5C)nnn4c3c2)CC1 [Compound 23] | < 18.7 µM | 1.87 to 9.37 µM |  |
| CCCNC(=O)CN1CCCN(c2ccc3c(=O)[nH]c4c(S(=O)(=O)c5ccc(C)cc5C)nnn4c3c2)CC1 [Compound 30] | 18.1 to 90.6 µM | < 1.81 µM |  |
| COCCNC(=O)CN1CCCN(c2ccc3c(=O)[nH]c4c(S(=O)(=O)c5ccc(C)cc5C)nnn4c3c2)CC1 [Compound 31] |  |  | Ratio IC50 (in presence of HSA)/IC50 (in absence of HSA): +++ (+++: ratio ≤ 25); IC50 at 40 mg/mL HSA [3]: +++ (+++: IC50 ≤ 10 μg/mL); IC50 without HSA [4]: +++ (+++: IC50 ≤ 1 μg/mL) |
| Cc1ccc(S(=O)(=O)c2nnn3c2[nH]c(=O)c2ccc(N4CCCN(CC(=O)NCCO)CC4)cc23)c(C)c1 [Compound 32] | 18.1 to 90.3 µM | 1.81 to 9.03 µM |  |
| Cc1ccc(S(=O)(=O)c2nnn3c2[nH]c(=O)c2ccc(N4CCN(CC(=O)NC5CC5)CC4)cc23)c(C)c1 [Compound 33] | 18.7 to 93.3 µM | < 1.87 µM |  |
| Cc1ccc(S(=O)(=O)c2nnn3c2[nH]c(=O)c2ccc(N4CCN(CC(=O)NC5CCC5)CC4)cc23)c(C)c1 [Compound 34] | 18.2 to 91 µM | < 1.82 µM |  |
| Cc1ccc(S(=O)(=O)c2nnn3c2[nH]c(=O)c2ccc(N4CCN(CC(=O)NC5CCCC5)CC4)cc23)c(C)c1 [Compound 35] | < 17.7 µM | < 1.77 µM |  |
| Cc1ccc(S(=O)(=O)c2nnn3c2[nH]c(=O)c2ccc(N4CCN(CC(=O)NCC5CC5)CC4)cc23)c(C)c1 [Compound 36] | 18.2 to 91 µM | < 1.82 µM |  |
| Cc1ccc(S(=O)(=O)c2nnn3c2[nH]c(=O)c2ccc(N4CCN(CC(=O)NCC5CCCC5)CC4)cc23)c(C)c1 [Compound 37] | < 17.3 µM | < 1.73 µM |  |
| Cc1ccc(S(=O)(=O)c2nnn3c2[nH]c(=O)c2ccc(N4CCN(CC(=O)NC5CCCCC5)CC4)cc23)c(C)c1 [Compound 38] | 17.3 to 86.5 µM | < 1.73 µM |  |
| Cc1ccc(S(=O)(=O)c2nnn3c2[nH]c(=O)c2ccc(N4CCN(CC(=O)N(C)C5CCCCC5)CC4)cc23)c(C)c1 [Compound 39] | 16.9 to 84.5 µM | < 1.69 µM |  |
| Cc1ccc(S(=O)(=O)c2nnn3c2[nH]c(=O)c2ccc(N4CCN(CC(=O)NCC5CCCCC5)CC4)cc23)c(C)c1 [Compound 40] | < 16.9 µM | < 1.69 µM |  |
| Cc1ccc(S(=O)(=O)c2nnn3c2[nH]c(=O)c2ccc(N4CCN(CC(=O)NC5CCC(N(C)C)CC5)CC4)cc23)c(C)c1 (stereo not drawn) [Compound 42] | 16.1 to 80.5 µM | < 1.61 µM |  |
| Cc1ccc(S(=O)(=O)c2nnn3c2[nH]c(=O)c2ccc(N4CCN(CC(=O)NC5CCC(O)CC5)CC4)cc23)c(C)c1 (stereo not drawn) [Compound 43] | < 16.8 µM | < 1.68 µM |  |
| Cc1ccc(S(=O)(=O)c2nnn3c2[nH]c(=O)c2ccc(N4CCN(CC(=O)NCCCC5CCCCC5)CC4)cc23)c(C)c1 [Compound 44] | 16.1 to 80.7 µM | 1.61 to 8.07 µM |  |
| Cc1ccc(S(=O)(=O)c2nnn3c2[nH]c(=O)c2ccc(N4CCC4)cc23)c(C)c1 [Compound 45 of WO 2020/109350, reference compound] | > 122 µM | < 2.44 µM | Ratio IC50 (in presence of HSA)/IC50 (in absence of HSA): + (+: ratio > 125); IC50 (IC50 in the presence of 40 mg/mL HSA, 40 mg/mL HSA, highest concentration tested 128 μg/mL): > 313 µM; IC50 (concentration inhibiting the expression of lacZ in the absence of HSA, absence of HSA): < 2.44 µM |
| Cc1ccc(S(=O)(=O)c2nnn3c2[nH]c(=O)c2ccc(N4CCCN(CC(=O)NC5CCC5)CC4)cc23)c(C)c1 [Compound 51] | 17.7 to 88.7 µM | < 1.77 µM |  |

| SMILES | IC50 [1] | IC50 [2] | other results |
| --- | --- | --- | --- |
| Cc1ccc(S(=O)(=O)c2nnn3c2[nH]c(=O)c2ccc(N4CCCN(CC(=O)NC5CCCC5)CC4)cc23)c(C)c1 [Compound 52] | 17.3 to 86.5 µM | 1.73 to 8.65 µM |  |
| Cc1ccc(S(=O)(=O)c2nnn3c2[nH]c(=O)c2ccc(N4CCCN(CC(=O)NC5CCCCC5)CC4)cc23)c(C)c1 [Compound 53] |  |  | Ratio IC50 (in presence of HSA)/IC50 (in absence of HSA): +++ (+++: ratio ≤ 25); IC50 at 40 mg/mL HSA [3]: ++ (++: 10 μg/mL < IC50 ≤ 50 μg/mL); IC50 without HSA [4]: ++ (++: 1 μg/mL < IC50 ≤ 5 μg/mL) |
| Cc1ccc(S(=O)(=O)c2nnn3c2[nH]c(=O)c2ccc(N4CCN(CC(=O)N5CCC5)CC4)cc23)c(C)c1 [Compound 54] | 18.7 to 93.3 µM | < 1.87 µM |  |
| Cc1ccc(S(=O)(=O)c2nnn3c2[nH]c(=O)c2ccc(N4CCN(CC(=O)N5CCCCC5)CC4)cc23)c(C)c1 [Compound 55] | 17.7 to 88.7 µM | < 1.77 µM |  |
| Cc1ccc(S(=O)(=O)c2nnn3c2[nH]c(=O)c2ccc(N4CCN(CC(=O)N5CCCCCC5)CC4)cc23)c(C)c1 [Compound 56] |  |  | Ratio IC50 (in presence of HSA)/IC50 (in absence of HSA): ++ (++: 25 < ratio ≤ 125); IC50 at 40 mg/mL HSA [3]: ++ (++: 10 μg/mL < IC50 ≤ 50 μg/mL); IC50 without HSA [4]: +++ (+++: IC50 ≤ 1 μg/mL) |
| Cc1ccc(S(=O)(=O)c2nnn3c2[nH]c(=O)c2ccc(N4CCN(CC(=O)N5CCCOCC5)CC4)cc23)c(C)c1 [Compound 57] | 17.3 to 86.3 µM | < 1.73 µM |  |
| Cc1ccc(S(=O)(=O)c2nnn3c2[nH]c(=O)c2ccc(N4CCN(CC(=O)N5CCN(C)CC5)CC4)cc23)c(C)c1 [Compound 58] | 17.3 to 86.4 µM | < 1.73 µM |  |
| Cc1ccc(S(=O)(=O)c2nnn3c2[nH]c(=O)c2ccc(N4CCN(CC(=O)N5CCN(C(C)(C)C)CC5)CC4)cc23)c(C)c1 [Compound 59] | < 16.1 µM | 1.61 to 8.05 µM |  |
| Cc1ccc(S(=O)(=O)c2nnn3c2[nH]c(=O)c2ccc(N4CCN(CC(=O)N5CCN(C6CC6)CC5)CC4)cc23)c(C)c1 [Compound 60] | < 16.5 µM | < 1.65 µM |  |
| Cc1ccc(S(=O)(=O)c2nnn3c2[nH]c(=O)c2ccc(N4CCN(CC(=O)N5CCNC(=O)C5)CC4)cc23)c(C)c1 [Compound 62] | 17.3 to 86.4 µM | 1.73 to 8.64 µM |  |
| Cc1ccc(S(=O)(=O)c2nnn3c2[nH]c(=O)c2ccc(N4CCN(CC(=O)N5CCC(F)(F)CC5)CC4)cc23)c(C)c1 [Compound 64] | 16.7 to 83.4 µM | < 1.67 µM |  |
| Cc1ccc(S(=O)(=O)c2nnn3c2[nH]c(=O)c2ccc(N4CCN(CC(=O)N5CCC(N(C)C)CC5)CC4)cc23)c(C)c1 [Compound 65] | < 16.5 µM | 1.65 to 8.24 µM |  |
| Cc1ccc(S(=O)(=O)c2nnn3c2[nH]c(=O)c2ccc(N4CCN(CC(=O)N5CCCC(O)C5)CC4)cc23)c(C)c1 (stereo not drawn) [Compound 67] | 17.3 to 86.3 µM | 1.73 to 8.63 µM |  |
| Cc1ccc(S(=O)(=O)c2nnn3c2[nH]c(=O)c2ccc(N4CCN(CC(=O)N5CCCN(C)CC5)CC4)cc23)c(C)c1 [Compound 69] | < 16.9 µM | 1.69 to 8.44 µM |  |
| Cc1ccc(S(=O)(=O)c2nnn3c2[nH]c(=O)c2ccc(N4CCN(CC(=O)N5CCCN(C(C)C)CC5)CC4)cc23)c(C)c1 [Compound 70] | 16.1 to 80.5 µM | < 1.61 µM |  |
| Cc1ccc(S(=O)(=O)c2nnn3c2[nH]c(=O)c2ccc(N4CCN(CC(=O)N5CCCN(CCO)CC5)CC4)cc23)c(C)c1 [Compound 71] | 16.1 to 80.3 µM | 1.61 to 8.03 µM |  |
| Cc1ccc(S(=O)(=O)c2nnn3c2[nH]c(=O)c2ccc(N4CCN(CC(=O)N5CCCC(=O)CC5)CC4)cc23)c(C)c1 [Compound 72] | 16.9 to 84.5 µM | < 1.69 µM |  |
| Cc1ccc(S(=O)(=O)c2nnn3c2[nH]c(=O)c2ccc(N4CCN(CC(=O)N5CC(C6CC6)C5)CC4)cc23)c(C)c1 [Compound 73] | 17.4 to 86.9 µM | < 1.74 µM |  |
| Cc1ccc(S(=O)(=O)c2nnn3c2[nH]c(=O)c2ccc(N4CCN(CC(=O)N5C(C)CCC5C)CC4)cc23)c(C)c1 (stereo not drawn) [Compound 74] |  |  | Ratio IC50 (in presence of HSA)/IC50 (in absence of HSA): +++ (+++: ratio ≤ 25); IC50 at 40 mg/mL HSA [3]: ++ (++: 10 μg/mL < IC50 ≤ 50 μg/mL); IC50 without HSA [4]: +++ (+++: IC50 ≤ 1 μg/mL) |
| Cc1ccc(S(=O)(=O)c2nnn3c2[nH]c(=O)c2ccc(N4CCN(CC(=O)N5CCC(O)C5)CC4)cc23)c(C)c1 (stereo not drawn) [Compound 75] |  |  | Ratio IC50 (in presence of HSA)/IC50 (in absence of HSA): +++ (+++: ratio ≤ 25); IC50 at 40 mg/mL HSA [3]: ++ (++: 10 μg/mL < IC50 ≤ 50 μg/mL); IC50 without HSA [4]: ++ (++: 1 μg/mL < IC50 ≤ 5 μg/mL) |
